Results on 34 compounds are retold here after US8883826B2, “Alkynyl derivatives as modulators of metabotropic glutamate receptors” (Addex Pharma SA, priority 2004, dated 2014).

Broadly, the IC50 is the point on the concentration scale where inhibition reaches its midpoint. Lower therefore signals greater potency.

A value given as a limit tells only on which side of the number the result lay.

This assay deals with T1, mGluR5 (Rattus norvegicus, UniProt P31424).
T1 construct: tissue Charles River Laboratories; host or cells: rat brain cortex membranes (Sprague-Dawley)
T1 sequence (P31424 21-1203): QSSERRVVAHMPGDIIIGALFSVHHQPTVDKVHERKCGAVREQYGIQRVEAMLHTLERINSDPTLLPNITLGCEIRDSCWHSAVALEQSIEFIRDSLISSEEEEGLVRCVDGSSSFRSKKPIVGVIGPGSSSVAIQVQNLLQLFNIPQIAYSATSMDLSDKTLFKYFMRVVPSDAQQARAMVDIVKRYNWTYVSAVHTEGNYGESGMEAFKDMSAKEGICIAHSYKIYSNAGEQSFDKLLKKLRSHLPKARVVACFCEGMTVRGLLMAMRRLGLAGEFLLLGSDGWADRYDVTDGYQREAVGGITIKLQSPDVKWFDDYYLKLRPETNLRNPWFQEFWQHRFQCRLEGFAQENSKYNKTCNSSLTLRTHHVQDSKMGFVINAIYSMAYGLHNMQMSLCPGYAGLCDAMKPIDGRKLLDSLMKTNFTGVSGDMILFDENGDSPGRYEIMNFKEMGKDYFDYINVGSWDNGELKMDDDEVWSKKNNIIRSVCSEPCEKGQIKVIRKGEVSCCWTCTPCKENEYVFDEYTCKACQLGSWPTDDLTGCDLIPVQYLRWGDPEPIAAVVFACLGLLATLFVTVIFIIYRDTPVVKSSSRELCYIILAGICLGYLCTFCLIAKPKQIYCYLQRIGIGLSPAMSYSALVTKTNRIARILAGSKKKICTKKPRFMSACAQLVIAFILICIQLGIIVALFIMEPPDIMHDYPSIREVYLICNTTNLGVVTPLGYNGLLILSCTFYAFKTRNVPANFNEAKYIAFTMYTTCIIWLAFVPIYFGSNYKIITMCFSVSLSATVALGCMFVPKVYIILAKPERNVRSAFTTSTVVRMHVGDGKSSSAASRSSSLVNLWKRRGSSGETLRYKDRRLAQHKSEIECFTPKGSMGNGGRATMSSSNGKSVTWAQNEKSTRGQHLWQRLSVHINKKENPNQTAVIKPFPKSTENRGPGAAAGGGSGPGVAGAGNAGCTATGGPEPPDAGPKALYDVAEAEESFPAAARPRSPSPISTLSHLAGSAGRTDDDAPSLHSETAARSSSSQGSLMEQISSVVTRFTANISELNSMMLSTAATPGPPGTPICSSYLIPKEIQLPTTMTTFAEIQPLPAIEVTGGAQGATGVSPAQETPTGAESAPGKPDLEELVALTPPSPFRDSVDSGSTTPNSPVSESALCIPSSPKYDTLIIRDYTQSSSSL
Put plainly: mGluR5 binding assay ([3H]-MPEP radioligand competition). The settings on record: competition with 3 nM [3H]-MPEP, rat brain cortical membranes, 1 h at 4 °C; mean of at least three independent experiments in duplicate. A digest of the protocol:
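Rat cortical membranes (50 μg) were incubated 1 h at 4 °C with 3 nM [3H]-MPEP and compound (0.003 nM-30 μM, 8 points) in HEPES buffer pH 7.4 with Mg2+, Ca2+ and NaCl. 30 μM MPEP defined non-specific binding, and bound label was counted after filtration. IC50 came from non-linear regression, as the mean of ≥3 experiments run in duplicate.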
In general terms: Displacement assays read how much labelled ligand stays bound in the presence of the test substance.
On to `Cc1ccccc1-c1cnn(CCC#Cc2ccccn2)c1` [Example 142, 2-(4-(4-o-Tolyl-1H-pyrazol-1-yl)but-1-ynyl)pyridine], for which the 50% inhibitory concentration (IC50) is less than 10 µM.
Next, `Cc1ccccc1-c1cnn(CCC#Cc2cccc(CF)n2)c1` [Example 143, 2-(Fluoromethyl)-6-(4-(4-o-tolyl-1H-pyrazol-1-yl)but-1-ynyl)pyridine]: less than 10 µM.
`FCc1cccc(C#CCCn2cc(-c3ccc(F)cc3)cn2)n1` [Example 144, 2-(Fluoromethyl)-6-(4-(4-(4-fluorophenyl)-1H-pyrazol-1-yl)but-1-ynyl)pyridine] yielded an IC50 of less than 10 µM.
In turn, `FCc1cccc(C#CCCc2cnc3cc(F)ccc3n2)n1` [Example 145, 6-Fluoro-2-(4-(6-(fluoromethyl)pyridin-2-yl)but-3-ynyl)quinoxaline] yielded an IC50 of less than 0.05 µM.
Next, `Clc1cccc2nn(CCC#Cc3ccccn3)nc12` [Example 146, 4-Chloro-2-(4-(pyridin-2-yl)but-3-ynyl)-2H-benzo[d][1,2,3]triazole]: less than 0.05 µM; `FCc1cccc(C#CCCn2nc3cccc(Cl)c3n2)n1` [Example 147, 4-Chloro-2-(4-(6-(fluoromethyl)pyridin-2-yl)but-3-ynyl)-2H-benzo[d][1,2,3]triazole]: less than 0.05 µM.
Consider `FCc1cccc(C#CCCn2cc3c(F)cccc3n2)n1` [Example 149, 4-Fluoro-2-(4-(6-(fluoromethyl)pyridin-2-yl)but-3-ynyl)-2H-indazole], for which the concentration for half-maximal inhibition (IC50) was less than 0.05 µM.
The value for `Clc1cccc2nn(CCC#Cc3ccccn3)cc12` [Example 150, 4-Chloro-2-(4-(pyridin-2-yl)but-3-ynyl)-2H-indazole] was less than 0.05 µM.
With `FCc1cccc(C#CCCn2cc3ccc(F)cc3n2)n1` [Example 151, 6-Fluoro-2-(4-(6-(fluoromethyl)pyridin-2-yl)but-3-ynyl)-2H-indazole], the IC50 is less than 0.05 µM.
The value for `FCc1cccc(C#CCCn2cc3c(Cl)cccc3n2)n1` [Example 152, 4-Chloro-2-(4-(6-(fluoromethyl)pyridin-2-yl)but-3-ynyl)-2H-indazole] was less than 0.05 µM; that for `FCc1cccc(C#CCCn2cc3cccc(F)c3n2)n1` [Example 155, 7-Fluoro-2-(4-(6-(fluoromethyl)pyridin-2-yl)but-3-ynyl)-2H-indazole] was less than 0.05 µM; that for `Cn1ccc(C#CCCn2nc3cccc(Cl)c3n2)n1` [Example 156, 4-Chloro-2-(4-(1-methyl-1H-pyrazol-3-yl)but-3-ynyl)-2H-benzo[d][1,2,3]triazole] was less than 0.05 µM.
Next, `Nc1cccc(C#CCCn2nc3cc(F)cc(F)c3n2)n1` [Example 157, 6-(4-(4,6-Difluoro-2H-benzo[d][1,2,3]triazol-2-yl)but-1-ynyl)pyridin-2-amine]: less than 10 µM.
The value for `C(#Cc1ccccn1)CCn1ccc(-c2ccccc2)n1` [Example 159, 2-(4-(3-Phenyl-1H-pyrazol-1-yl)but-1-ynyl)pyridine] was less than 10 µM.
Turning to `O=[N+]([O-])c1cccc2nn(CCC#Cc3ccccn3)nc12` [Example 160, 4-Nitro-2-(4-(pyridin-2-yl)but-3-ynyl)-2H-benzo[d][1,2,3]triazole], the IC50 was less than 10 µM.
Next, `O=[N+]([O-])c1cccc2nn(CCC#Cc3cccc(CF)n3)nc12` [Example 161, 2-(4-(6-(Fluoromethyl)pyridin-2-yl)but-3-ynyl)-4-nitro-2H-benzo[d][1,2,3]triazole]: less than 10 µM.
Next, `Cc1cccc2nn(CCC#Cc3ccccn3)nc12` [Example 163, 4-Methyl-2-(4-(pyridin-2-yl)but-3-ynyl)-2H-benzo[d][1,2,3]triazole]: less than 0.05 µM; `Cc1cccc2nn(CCC#Cc3cccc(CF)n3)nc12` [Example 164, 2-(4-(6-(Fluoromethyl)pyridin-2-yl)but-3-ynyl)-4-methyl-2H-benzo[d][1,2,3]triazole]: less than 0.05 µM.
Next, `Cc1ccc2nn(CCC#Cc3cccc(CF)n3)nc2c1` [Example 165, 2-(4-(6-(Fluoromethyl)pyridin-2-yl)but-3-ynyl)-5-methyl-2H-benzo[d][1,2,3]triazole]: less than 0.05 µM; `Cc1ccc2nn(CCC#Cc3ccccn3)nc2c1` [Example 166, 5-Methyl-2-(4-(pyridin-2-yl)but-3-ynyl)-2H-benzo[d][1,2,3]triazole]: less than 0.5 µM.
For the compound `Fc1ccc(-c2ccnn2CCC#Cc2ccccn2)cc1` [Example 171, 2-(4-(5-(4-Fluorophenyl)-1H-pyrazol-1-yl)but-1-ynyl)pyridine], the IC50 is less than 10 µM.
The value for `FC(CC#Cc1ccccn1)c1cnc2ccccc2n1` (stereo not shown) [Example 172, 2-(1-Fluoro-4-(pyridin-2-yl)but-3-ynyl)quinoxaline] was less than 10 µM; that for `O=CNc1cccc(C#CCCn2nc3ccccc3n2)n1` [Example 175, N-(6-(4-(2H-Benzo[d][1,2,3]triazol-2-yl)but-1-ynyl)pyridin-2-yl)formamide] was less than 10 µM; that for `Cc1nc(C#CCCn2nc3cccc(Cl)c3n2)cn1C` [Example 176, 4-Chloro-2-(4-(1,2-dimethyl-1H-imidazol-4-yl)but-3-ynyl)-2H-benzo[d][1,2,3]triazole] was less than 10 µM.
Next, `Cc1ccc2nn(CCC#Cc3ccccn3)nc2c1C` [Example 177, 4,5-Dimethyl-2-(4-(pyridin-2-yl)but-3-ynyl)-2H-benzo[d][1,2,3]triazole]: less than 10 µM.
Next, `Cc1ccc2nn(CCC#Cc3cccc(CF)n3)nc2c1C` [Example 178, 2-(4-(6-(Fluoromethyl)pyridin-2-yl)but-3-ynyl)-4,5-dimethyl-2H-benzo[d][1,2,3]triazole]: less than 10 µM; `Clc1cccc(C#CCCn2nc3ccccc3n2)n1` [Example 180, 2-(4-(6-Chloropyridin-2-yl)but-3-ynyl)-2H-benzo[d][1,2,3]triazole]: less than 10 µM.
As for `Cc1nc2ccccc2nc1CCC#Cc1cccc(CF)n1` [Example 181, 2-(4-(6-(Fluoromethyl)pyridin-2-yl)but-3-ynyl)-3-methylquinoxaline], the 50% inhibitory concentration (IC50) was less than 10 µM.
The value for `CC(F)c1cccc(C#CCCn2nc3ccccc3n2)n1` (stereo not shown) [Example 182, 2-(4-(6-(1-Fluoroethyl)pyridin-2-yl)but-3-ynyl)-2H-benzo[d][1,2,3]triazole] was less than 10 µM; that for `O=C(NCCC#Cc1cccc(CF)n1)c1c(Cl)cccc1Cl` [Example 189, 2,6-Dichloro-N-(4-(6-(fluoromethyl)pyridin-2-yl)but-3-ynyl)benzamide] was less than 10 µM.
The value for `Cn1c(CCC#Cc2cccc(CF)n2)nc2cccc(Cl)c21` [Example 191, 7-Chloro-2-(4-(6-(fluoromethyl)pyridin-2-yl)but-3-ynyl)-1-methyl-1H-benzo[d]imidazole] was less than 10 µM; that for `Cn1c(CCC#Cc2ccccn2)nc2cccc(Cl)c21` [Example 192, 7-Chloro-1-methyl-2-(4-(pyridin-2-yl)but-3-ynyl)-1H-benzo[d]imidazole] was less than 0.5 µM.
Next, `CC(C)n1c(CCC#Cc2ccccn2)nc2ccccc21` [Example 194, 1-Isopropyl-2-(4-(pyridin-2-yl)but-3-ynyl)-1H-benzo[d]imidazole]: less than 10 µM; `Cn1c(CCC#Cc2ccccn2)nc2cc(F)ccc21` [Example 197, 5-Fluoro-1-methyl-2-(4-(pyridin-2-yl)but-3-ynyl)-1H-benzo[d]imidazole]: less than 10 µM.
